Values after ≈ are worked out from the molar mass of the structure shown. Where two headings read alike, the source gives them in different places.
Tests used:
[1] = test system: Escherichia coli ATCC35218; assay: MIC, microtiter turbidity test; format: cell-based
[2] = test system: Staphylococcus aureus ATCC33592; assay: MIC, microtiter turbidity test; format: cell-based; settings: read-out: MIC Sa
[3] = test system: Septoria tritici MUCL45408; assay: MIC, BacTiter-Glo ATP quantification; format: cell-based; settings: read-out: MIC Str
[4] = test system: Mycobacterium tuberculosis H37Ra; assay: MIC, BacTiter-Glo ATP quantification, surrogate Mtb strain; format: cell-based; settings: for MIC Mtb: Mycobacterium tuberculosis H37Ra, 7H9-palmitate, 7 days, BacTiter-Glo, n=3; for MIC: Mycobacterium tuberculosis, H37RA, 168 h, read-out: MIC Mtb, Mycobacterium tuberculosis H37Ra, 7H9-palmitate, 7 days, BacTiter-Glo, n=3
Procedure: The antimicrobial effect of the 21 synthesized compounds was initially accessed against a panel of 4 microbial indicator strains (Escherichia coli ATCC35218, Staphylococcus aureus ATCC33592, Septoria tritici MUCL45408 and Mycobacterium tuberculosis H37Ra). Cytotoxicity was investigated using an epithelia cell line from human lung carcinoma (Calu-3).
The minimum inhibitory concentration (MIC) of the […] compounds 5a-i, 6a-b,7a, 8a and C1-8 was determined as previously described with only minor changes. 6,7 Briefly, the cell density of an overnight cultures of Escherichia coli ATCC35218 and Staphylococcus aureus […] was diluted to 5 × 10^5 cells/mL in cation adjusted Mueller Hinton II medium (Becton Dickinson, Sparks, NV, USA) and distributed into 96-well plates. Three 12-point dilution series of rifampicin, tetracycline and gentamicin ranging from 64 - 0.03 µg/mL (all Sigma Aldrich, St. Louis, MO, USA), respectively, were used as positive controls. All tested compounds were dissolved in dimethyl sulfoxide (DMSO, Carl Roth GmbH + Co., Karlsruhe, Germany) and tested in triplicate at the same concentrations as the positive controls.
Bacterial suspensions without test compound or positive control were used as negative controls.
Medium background was averaged from 5 replicates. Assay incubation was done at 37°C, 180rpm and 85% relative humidity. The turbidity of each well was measured with a microplate spectrophotometer at 600 nm (LUMIstar® Omega BMG Labtech, Ortenberg, Germany). Growth inhibition was calculated relative to the absorption of the controls.
For S. tritici MUCL45408, a previously prepared spore solution was used to adjust the assay inoculum to 1 × 10^5 spores/mL in potato dextrose medium (Sigma Aldrich). Septoria assay plates were incubated for 4 days at 25°C, 180 rpm and 85% rH. Tebuconazole (Cayman Chemical Company, Ann Arbor, MI, USA) and amphotericin B (Sigma Aldrich) were used as positive control. Cell viability was evaluated via ATP quantification (BacTiter-Glo™, Promega, Walldorf, Germany) according to the manufacturer’s […]
Mycobacterium tuberculosis ITM-M006710 H37Ra (ATCC 9431) was incubated for 14 days in Middlebrook 7H9 broth (from ThermoFisher Scientific, Walthman, MA, USA) supplemented with 5.6 µg/mL palmitic acid (Sigma Aldrich), 1 mg/mL casitone (ThermoFisher Scientific), 5mg/mL BSA, 4µg/mL catalase (Sigma Aldrich), and 0.2% glycerol at 37°C, 180 rpm and 85% rH. In a first step, the culture was diluted to McFarland standard of 1, before the final inoculum density of a 1 × 10^6 cells/mL was obtained by further dilution with freshly prepared medium. Individual 12-point dilution series of rifampicin, ampicillin and gentamicin (ranging from 64-0.03 µg/mL) were used as positive controls. The assay plates were incubated for 7 days under microaerophilic conditions at 37°C/5% CO2 (BD gaspak CO2 system) and read-out was done by ATP quantification (s. above).
The MIC was defined as the minimum concentration where at least 85% growth inhibition relative to the negative control was measured. Relative inhibition for the microtiter turbidity tests (MTT) were […]
rel. inh.% = 100 * [1- (AU sample - AU Low)/(AU High - AU Low)]
AU: absorption unit at 600nm; Low: medium blank; High: negative control of maximal growth.
Accordingly, the BacTiter-Glo™ (BTG) assays were calculated as rel. inh.% = 100 * [1- (LU sample - LU Low)/(LU High - LU Low)]
AU: luminescence unit; Low: medium blank; High: negative control of maximal growth.
For Mycobacterium tuberculosis ATCC 35801 a resazurin microtiter assay was carried out as previously described8 Briefly, assay plates were set up by transferring 10 µl of compounds form a 1:2-fold dilution series in distilled and sterile water to a 96-well plate. The final assay´s concentrations range from 0.39-100 µM and as positive and negative control 5 µM rifampicin and 0.5% DMSO were used. Subsequently a bacterial suspension with Mycobacterium tuberculosis with a final OD560 of 0.0003 was prepared in […]

[5] = test system: Mycobacterium tuberculosis ATCC 35801; assay: Resazurin microtiter assay, second-tier BSL-3; format: cell-based
in vitro = settings: human
various Mtb strains = test system: various Mtb strains; parameters: method as in PMID 27654337, PMID 29900893, PMID 36934122, PMID 32750539; settings: cited from earlier work
[6] = Escherichia coli ATCC35218, MHII medium, turbidity at 600 nm, n=3, read-out: MIC Ec
[7] = ATCC 33592 / MRSA, Staphylococcus aureus ATCC33592 (MRSA), MHII medium, turbidity at 600 nm, n=3
[8] = Staphylococcus aureus ATCC33592 (MRSA), MHII medium, turbidity at 600 nm, n=3
[9] = Septoria tritici MUCL45408, PDB medium, 4 days, BacTiter-Glo, n=3
[10] = Zymoseptoria tritici, 96 h, Septoria tritici MUCL45408, PDB medium, 4 days, BacTiter-Glo, n=3
[11] = Escherichia coli, ATCC35218, read-out: MIC Ec
[12] = Staphylococcus aureus, ATCC 33592 / MRSA
[13] = Zymoseptoria tritici, MUCL45408, 96 h

Compound	MIC [1, 6]	MIC [2, 7]	MIC [2, 8]	MIC [3, 9]	MIC [3, 10]	MIC [4]	further results
c1ccc(-c2nc(-c3nccc4ccccc34)c3ccc4ccccc4n23)cc1 [5d]	>172 µM	> 172 µM	>172 µM	>172 µM	> 172 µM		
c1ccc(N(c2ccccc2)c2nc(-c3ccccn3)c3ccc4ccccc4n23)cc1 [8a]	>155 µM		>155 µM	>155 µM		> 155 µM	MIC [1, 11]: > 155 µM; MIC [2, 12]: > 155 µM; MIC [3, 13]: > 155 µM; MIC Mtb [4]: >155 µM
c1ccc(-c2nc(-c3cc4ccccc4cn3)c3ccc4ccccc4n23)cc1 [5g]	>144 µM	> 144 µM	>144 µM	>144 µM	> 144 µM	≤ 2 µM	inhibition at 20 µM ([5]; ATCC35801, Mtb ATCC 35801, 20 μM): 82%; IC90 ([5]; ATCC35801, read-out: IC90 Mtb ATCC 35801, resazurin, 7 days + 24 h): 132 µM; IC50 ([5]; ATCC35801, resazurin, 7 days + 24 h, read-out: IC50 Mtb ATCC 35801): 86.5 µM; IC90 ([5]; ATCC35801, resazurin, 7 days + 24 h, read-out: IC90 Mtb ATCC 35801): 136 µM; IC50 at 3 days (in vitro): > 100 µM
COc1ccccc1-c1nc(-c2ccccc2)n2c1ccc1ccccc12 [5i]	>183 µM	> 183 µM	>183 µM	>183 µM	> 183 µM	46 µM (≈ 16.1 µg/mL)	
C[C@@H]1[C@H](O)[C@@H](C)/C=C/C=C/C=C/C=C/C=C/C=C/C=C/[C@H](O[C@@H]2O[C@H](C)[C@@H](O)[C@H](N)[C@@H]2O)C[C@@H]2O[C@](O)(C[C@@H](O)C[C@@H](O)[C@H](O)CC[C@@H](O)C[C@@H](O)CC(=O)O[C@H]1C)C[C@H](O)[C@H]2C(=O)O [AMB, amphotericin B, reference compound]					0.135 µM (≈ 0.125 µg/mL)		
CN(C)c1ccccc1-c1nc(-c2ccccc2)n2c1ccc1ccccc12 [5h]	>127 µM	> 127 µM	>127 µM	>127 µM	> 127 µM	2 µM (≈ 0.727 µg/mL)	
c1ccc(-c2nc(-c3cccc4ccccc34)n3c2ccc2ccccc23)nc1 [7a]	>172 µM	> 172 µM	>172 µM	>172 µM	> 172 µM		
c1ccc(-c2ccc(-c3nc(-c4ccccc4)n4c3ccc3ccccc34)nc2)cc1 [5f]	>136 µM	> 136 µM	>136 µM	>136 µM	> 136 µM	34 µM (≈ 13.5 µg/mL)	
CC(=O)[O-].CC(=O)[O-].[Cu+2] [Cu(OAc)2, reference compound]							MIC Mtb [4]: 43 µM
CO[C@H]1/C=C/O[C@@]2(C)Oc3c(C)c(O)c4c(O)c(c(/C=N/N5CCN(C)CC5)c(O)c4c3C2=O)NC(=O)/C(C)=C\C=C\[C@H](C)[C@H](O)[C@@H](C)[C@@H](O)[C@@H](C)[C@H](OC(C)=O)[C@@H]1C [rifampicin, reference compound]	5 µM (≈ 4.11 µg/mL)	> 78 µM				0.07 µM (≈ 0.0576 µg/mL)	
CNC(C)C1CCC(N)C(OC2C(N)CC(N)C(OC3OCC(C)(O)C(NC)C3O)C2O)O1 (stereo not shown) [gentamicin, reference compound]						4 µM (≈ 1.91 µg/mL)	
CC[C@@H](CO)NCCN[C@@H](CC)CO [ethambutol]							MIC, literature reported values (various Mtb strains): 0.3 to 3 µM
c1ccc(-c2nc(-c3ccccn3)n3c2ccc2ccccc23)nc1 [6a]	>198 µM	> 198 µM	>198 µM	>198 µM	> 198 µM		
c1ccc(-c2nc(-c3ccccn3)n3c2ccc2ccccc23)cc1 [6b]	>199 µM	> 199 µM	>199 µM	>199 µM	> 199 µM		
[Cl][Fe]([Cl])[Cl] [FeCl3, reference compound]	> 394 µM		> 394 µM				MIC Mtb [4]: > 394 µM
COc1nc2ccc(Br)cc2cc1[C@@H](c1ccccc1)[C@@](O)(CCN(C)C)c1cccc2ccccc12 [bendaquiline]							MIC, literature reported values (various Mtb strains): 0.03 to 1 µM
[Cl-].[Cl-].[Zn+2] [ZnCl2, reference compound]	> 470 µM		> 470 µM				MIC Mtb [4]: 235 µM
C[C@H]1COc2c(N3CCN(C)CC3)c(F)cc3c(=O)c(C(=O)O)cn1c23 [levofloxacin]							MIC, literature reported values (various Mtb strains): 0.8 to 1.4 µM
c1ccc(-c2nc(-c3ccccc3)n3c2ccc2ccccc23)cc1 [5b]	>200 µM	> 200 µM	>200 µM	>200 µM	> 200 µM	> 200 µM	MIC Mtb [4]: >200 µM
c1ccc(-c2nc(-c3ccccn3)c3ccc4ccccc4n23)cc1 [5c]	>199 µM	> 199 µM	>199 µM	>199 µM	> 199 µM	25 µM (≈ 8.03 µg/mL)	
NNC(=O)c1ccncc1 [isoniazid]							MIC, literature reported values (various Mtb strains): 0.3 to 1.4 µM
NCC[C@H](O)C(=O)N[C@@H]1C[C@H](N)[C@@H](O[C@H]2O[C@H](CN)[C@@H](O)[C@H](O)[C@H]2O)[C@H](O)[C@H]1O[C@H]1O[C@H](CO)[C@@H](O)[C@H](N)[C@H]1O [amikacin]							MIC, literature reported values (various Mtb strains): 0.4 to 1.7 µM
CC1(C)S[C@@H]2[C@H](NC(=O)[C@H](N)c3ccccc3)C(=O)N2[C@H]1C(=O)O [AMP, ampicillin, reference compound]						184 µM (≈ 64.3 µg/mL)	
CC(C)(C)C(O)(CCc1ccc(Cl)cc1)Cn1cncn1 (stereo not shown) [TEB, tebuconazole, reference compound]							MIC [3, 13]: > 0.01 µM
c1ccc(-c2nc(-c3ncccn3)c3ccc4ccccc4n23)cc1 [5e]	>148 µM	> 148 µM	>148 µM	>148 µM	> 148 µM	1 µM (≈ 0.322 µg/mL)	
c1ccc(-c2nc(-c3cccs3)c3ccc4ccccc4n23)cc1 [5a]	>196 µM		>196 µM	>196 µM		> 196 µM	MIC [1, 11]: > 196 µM; MIC [2, 12]: > 196 µM; MIC [3, 13]: > 196 µM; MIC Mtb [4]: >196 µM
